± gives the expanded uncertainty stated by the source.
Assay: xn = mol fraction of the nth substance listed
Details: Gas, Buoyancy - hydrostatic balance with magnetic suspension - one sinker

[HH] [hydrogen] + N#N
Details	mass density [kg/m3]
324.95 K, 4997 kPa, x2 = 0.95	49.08 ± 0.057
324.95 K, 4998 kPa, x2 = 0.9	46.597 ± 0.055
324.95 K, 5000 kPa, x2 = 0.5001	27.194 ± 0.038
324.95 K, 5997 kPa, x2 = 0.9	55.762 ± 0.055
324.95 K, 5997 kPa, x2 = 0.95	58.767 ± 0.057
324.95 K, 6001 kPa, x2 = 0.5001	32.482 ± 0.038
324.95 K, 6997 kPa, x2 = 0.9	64.863 ± 0.056
324.95 K, 7000 kPa, x2 = 0.95	68.408 ± 0.058
324.95 K, 7002 kPa, x2 = 0.5001	37.712 ± 0.038
324.95 K, 7996 kPa, x2 = 0.5001	42.85 ± 0.039
324.95 K, 7997 kPa, x2 = 0.95	77.913 ± 0.058
324.95 K, 7998 kPa, x2 = 0.9	73.894 ± 0.056
324.95 K, 8997 kPa, x2 = 0.5001	47.967 ± 0.039
324.95 K, 8998 kPa, x2 = 0.9	82.834 ± 0.056
324.95 K, 8999 kPa, x2 = 0.95	87.379 ± 0.059
324.95 K, 9998 kPa, x2 = 0.5001	53.025 ± 0.039
324.95 K, 9998 kPa, x2 = 0.9	91.672 ± 0.057
324.95 K, 9999 kPa, x2 = 0.95	96.736 ± 0.059
324.95 K, 10996 kPa, x2 = 0.5001	58.014 ± 0.04
324.95 K, 10996 kPa, x2 = 0.95	105.963 ± 0.059
324.95 K, 10997 kPa, x2 = 0.9	100.42 ± 0.057
324.95 K, 11997 kPa, x2 = 0.5001	62.949 ± 0.04
324.95 K, 11999 kPa, x2 = 0.9	109.068 ± 0.058
324.95 K, 12979 kPa, x2 = 0.95	123.971 ± 0.06
324.95 K, 12995 kPa, x2 = 0.5001	67.81 ± 0.041
324.95 K, 13000 kPa, x2 = 0.9	117.611 ± 0.058
324.95 K, 13992 kPa, x2 = 0.5001	72.609 ± 0.04
324.95 K, 13997 kPa, x2 = 0.9	126.005 ± 0.059
324.95 K, 13998 kPa, x2 = 0.95	133.041 ± 0.061
324.95 K, 14993 kPa, x2 = 0.5001	77.366 ± 0.041
324.95 K, 14996 kPa, x2 = 0.9	134.301 ± 0.059
324.95 K, 15985 kPa, x2 = 0.5001	82.016 ± 0.042
324.95 K, 15998 kPa, x2 = 0.9	142.496 ± 0.059
324.95 K, 16998 kPa, x2 = 0.5001	86.706 ± 0.042
324.95 K, 17000 kPa, x2 = 0.9	150.561 ± 0.059
324.95 K, 17998 kPa, x2 = 0.5001	91.271 ± 0.043
324.95 K, 18003 kPa, x2 = 0.9	158.509 ± 0.06
324.95 K, 18996 kPa, x2 = 0.5001	95.768 ± 0.043
324.95 K, 19001 kPa, x2 = 0.9	166.298 ± 0.061
324.95 K, 19974 kPa, x2 = 0.5001	100.115 ± 0.045
349.93 K, 2982 kPa, x2 = 0.95	27.214 ± 0.052
349.93 K, 12999 kPa, x2 = 0.95	114.314 ± 0.057
349.93 K, 13999 kPa, x2 = 0.95	122.495 ± 0.057
349.93 K, 14993 kPa, x2 = 0.95	130.518 ± 0.058
349.93 K, 15998 kPa, x2 = 0.95	138.524 ± 0.058
349.94 K, 997 kPa, x2 = 0.95	9.137 ± 0.052
349.94 K, 998 kPa, x2 = 0.9	8.697 ± 0.05
349.94 K, 999 kPa, x2 = 0.5001	5.133 ± 0.035
349.94 K, 1998 kPa, x2 = 0.5001	10.223 ± 0.035
349.94 K, 1998 kPa, x2 = 0.95	18.271 ± 0.052
349.94 K, 1999 kPa, x2 = 0.9	17.375 ± 0.05
349.94 K, 2979 kPa, x2 = 0.9	25.835 ± 0.05
349.94 K, 2984 kPa, x2 = 0.5001	15.198 ± 0.036
349.94 K, 3995 kPa, x2 = 0.5001	20.259 ± 0.036
349.94 K, 3997 kPa, x2 = 0.95	36.385 ± 0.053
349.94 K, 3998 kPa, x2 = 0.9	34.568 ± 0.051
349.94 K, 4998 kPa, x2 = 0.9	43.083 ± 0.051
349.94 K, 4998 kPa, x2 = 0.95	45.368 ± 0.053
349.94 K, 5000 kPa, x2 = 0.5001	25.225 ± 0.036
349.94 K, 5998 kPa, x2 = 0.5001	30.119 ± 0.037
349.94 K, 5998 kPa, x2 = 0.9	51.533 ± 0.052
349.94 K, 5998 kPa, x2 = 0.95	54.273 ± 0.054
349.94 K, 6996 kPa, x2 = 0.5001	34.959 ± 0.037
349.94 K, 6996 kPa, x2 = 0.95	63.099 ± 0.054
349.94 K, 6997 kPa, x2 = 0.9	59.903 ± 0.052
349.94 K, 7995 kPa, x2 = 0.5001	39.749 ± 0.037
349.94 K, 7998 kPa, x2 = 0.9	68.207 ± 0.052
349.94 K, 7998 kPa, x2 = 0.95	71.871 ± 0.054
349.94 K, 8997 kPa, x2 = 0.5001	44.504 ± 0.037
349.94 K, 8998 kPa, x2 = 0.9	76.424 ± 0.053
349.94 K, 8999 kPa, x2 = 0.95	80.553 ± 0.055
349.94 K, 9995 kPa, x2 = 0.5001	49.185 ± 0.038
349.94 K, 9996 kPa, x2 = 0.9	84.544 ± 0.053
349.94 K, 9999 kPa, x2 = 0.95	89.144 ± 0.055
349.94 K, 10995 kPa, x2 = 0.5001	53.825 ± 0.038
349.94 K, 10996 kPa, x2 = 0.9	92.584 ± 0.054
349.94 K, 10998 kPa, x2 = 0.95	97.623 ± 0.056
349.94 K, 11994 kPa, x2 = 0.5001	58.4 ± 0.039
349.94 K, 11995 kPa, x2 = 0.95	105.989 ± 0.056
349.94 K, 11997 kPa, x2 = 0.9	100.534 ± 0.054
349.94 K, 12994 kPa, x2 = 0.9	108.364 ± 0.055
349.94 K, 12996 kPa, x2 = 0.5001	62.939 ± 0.039
349.94 K, 13990 kPa, x2 = 0.5001	67.389 ± 0.039
349.94 K, 14000 kPa, x2 = 0.9	116.157 ± 0.055
349.94 K, 14992 kPa, x2 = 0.5001	71.82 ± 0.039
349.94 K, 14999 kPa, x2 = 0.9	123.797 ± 0.055
349.94 K, 15993 kPa, x2 = 0.9	131.294 ± 0.056
349.94 K, 15994 kPa, x2 = 0.5001	76.196 ± 0.04
349.94 K, 16996 kPa, x2 = 0.5001	80.519 ± 0.04
349.94 K, 16996 kPa, x2 = 0.95	146.347 ± 0.059
349.94 K, 17001 kPa, x2 = 0.9	138.788 ± 0.056
349.94 K, 17991 kPa, x2 = 0.5001	84.762 ± 0.041
349.94 K, 17997 kPa, x2 = 0.9	146.084 ± 0.057
349.94 K, 18002 kPa, x2 = 0.95	154.124 ± 0.059
349.94 K, 18991 kPa, x2 = 0.5001	88.967 ± 0.041
349.94 K, 18992 kPa, x2 = 0.9	153.266 ± 0.058
349.94 K, 18992 kPa, x2 = 0.95	161.661 ± 0.06
349.94 K, 19744 kPa, x2 = 0.9	158.626 ± 0.058
349.94 K, 19885 kPa, x2 = 0.5001	92.681 ± 0.042
349.94 K, 19940 kPa, x2 = 0.95	168.761 ± 0.06

Source: the NIST ThermoML archive (doi:10.1021/acs.jced.7b00694)
